Results reported in ChEMBL document CHEMBL5614370, “Data-oriented protein kinase drug discovery” (Eur J Med Chem, 2024).

Tests used:
[1] = target: Phosphatidylinositol 4,5-bisphosphate 3-kinase catalytic subunit alpha isoform (Homo sapiens, UniProt P42336); test: Inhibition of PI3Kalpha (unknown origin)
[2] = target: Hepatocyte growth factor receptor (Homo sapiens, UniProt P08581); test: Inhibition of HGF receptor (unknown origin)
[3] = target: Macrophage colony-stimulating factor 1 receptor (Homo sapiens, UniProt P07333); test: Inhibition of CSF1R (unknown origin)
Macrophage colony-stimulating factor 1 receptor, sequence (P07333 whole entry): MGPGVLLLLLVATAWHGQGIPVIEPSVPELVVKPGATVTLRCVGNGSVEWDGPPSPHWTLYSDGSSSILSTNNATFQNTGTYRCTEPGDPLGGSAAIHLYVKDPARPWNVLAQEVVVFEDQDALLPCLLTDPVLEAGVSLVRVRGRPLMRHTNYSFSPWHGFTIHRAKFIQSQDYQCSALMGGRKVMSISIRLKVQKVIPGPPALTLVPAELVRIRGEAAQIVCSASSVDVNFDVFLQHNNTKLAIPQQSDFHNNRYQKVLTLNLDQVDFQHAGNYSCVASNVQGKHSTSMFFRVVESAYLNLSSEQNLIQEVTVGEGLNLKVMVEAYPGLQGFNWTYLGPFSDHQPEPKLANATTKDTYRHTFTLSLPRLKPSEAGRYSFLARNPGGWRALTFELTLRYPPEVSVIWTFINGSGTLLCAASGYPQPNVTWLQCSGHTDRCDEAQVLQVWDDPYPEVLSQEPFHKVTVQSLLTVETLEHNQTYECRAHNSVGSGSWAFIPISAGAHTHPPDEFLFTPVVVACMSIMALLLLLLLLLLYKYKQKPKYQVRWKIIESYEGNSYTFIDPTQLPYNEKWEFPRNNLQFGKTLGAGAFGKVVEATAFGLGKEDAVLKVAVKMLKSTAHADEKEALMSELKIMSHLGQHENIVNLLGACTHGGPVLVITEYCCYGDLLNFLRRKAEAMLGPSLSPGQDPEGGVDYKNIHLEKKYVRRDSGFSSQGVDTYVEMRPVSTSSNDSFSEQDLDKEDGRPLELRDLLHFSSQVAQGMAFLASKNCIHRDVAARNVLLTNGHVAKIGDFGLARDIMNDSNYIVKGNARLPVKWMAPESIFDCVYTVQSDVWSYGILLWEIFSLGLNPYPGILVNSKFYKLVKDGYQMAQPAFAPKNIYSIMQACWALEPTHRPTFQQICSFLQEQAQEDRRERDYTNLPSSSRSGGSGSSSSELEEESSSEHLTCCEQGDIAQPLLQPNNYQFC

Phosphatidylinositol 4,5-bisphosphate 3-kinase catalytic subunit alpha isoform, sequence (P42336 whole entry, canonical isoform): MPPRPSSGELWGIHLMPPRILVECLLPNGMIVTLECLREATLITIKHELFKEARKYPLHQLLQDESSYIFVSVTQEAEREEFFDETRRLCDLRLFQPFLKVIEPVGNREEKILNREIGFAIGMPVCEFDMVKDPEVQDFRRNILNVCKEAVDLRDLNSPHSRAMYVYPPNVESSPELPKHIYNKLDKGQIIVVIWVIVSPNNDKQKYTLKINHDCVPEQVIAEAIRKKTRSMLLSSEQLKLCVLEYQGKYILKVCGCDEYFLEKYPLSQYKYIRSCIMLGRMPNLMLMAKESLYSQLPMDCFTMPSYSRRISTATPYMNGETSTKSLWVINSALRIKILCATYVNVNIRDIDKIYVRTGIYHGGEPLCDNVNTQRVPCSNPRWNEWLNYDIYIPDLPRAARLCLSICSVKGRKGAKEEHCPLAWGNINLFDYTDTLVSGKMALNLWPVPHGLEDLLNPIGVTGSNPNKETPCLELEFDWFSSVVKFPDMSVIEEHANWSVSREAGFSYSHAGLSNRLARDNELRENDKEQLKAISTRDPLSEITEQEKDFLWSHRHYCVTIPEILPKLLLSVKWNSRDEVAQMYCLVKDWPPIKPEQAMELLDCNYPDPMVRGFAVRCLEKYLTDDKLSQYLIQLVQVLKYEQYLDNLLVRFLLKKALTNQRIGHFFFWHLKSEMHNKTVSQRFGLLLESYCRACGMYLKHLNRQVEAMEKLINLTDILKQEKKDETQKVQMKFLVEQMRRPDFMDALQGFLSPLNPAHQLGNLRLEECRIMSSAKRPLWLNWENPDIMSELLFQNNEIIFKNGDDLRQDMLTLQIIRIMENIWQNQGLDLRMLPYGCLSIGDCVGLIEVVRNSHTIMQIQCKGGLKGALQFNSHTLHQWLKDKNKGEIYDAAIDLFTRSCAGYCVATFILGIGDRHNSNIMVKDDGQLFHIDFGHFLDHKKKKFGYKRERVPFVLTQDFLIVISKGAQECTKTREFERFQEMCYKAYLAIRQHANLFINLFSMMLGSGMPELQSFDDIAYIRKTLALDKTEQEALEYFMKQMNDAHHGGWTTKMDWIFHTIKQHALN
Hepatocyte growth factor receptor, sequence (P08581 whole entry): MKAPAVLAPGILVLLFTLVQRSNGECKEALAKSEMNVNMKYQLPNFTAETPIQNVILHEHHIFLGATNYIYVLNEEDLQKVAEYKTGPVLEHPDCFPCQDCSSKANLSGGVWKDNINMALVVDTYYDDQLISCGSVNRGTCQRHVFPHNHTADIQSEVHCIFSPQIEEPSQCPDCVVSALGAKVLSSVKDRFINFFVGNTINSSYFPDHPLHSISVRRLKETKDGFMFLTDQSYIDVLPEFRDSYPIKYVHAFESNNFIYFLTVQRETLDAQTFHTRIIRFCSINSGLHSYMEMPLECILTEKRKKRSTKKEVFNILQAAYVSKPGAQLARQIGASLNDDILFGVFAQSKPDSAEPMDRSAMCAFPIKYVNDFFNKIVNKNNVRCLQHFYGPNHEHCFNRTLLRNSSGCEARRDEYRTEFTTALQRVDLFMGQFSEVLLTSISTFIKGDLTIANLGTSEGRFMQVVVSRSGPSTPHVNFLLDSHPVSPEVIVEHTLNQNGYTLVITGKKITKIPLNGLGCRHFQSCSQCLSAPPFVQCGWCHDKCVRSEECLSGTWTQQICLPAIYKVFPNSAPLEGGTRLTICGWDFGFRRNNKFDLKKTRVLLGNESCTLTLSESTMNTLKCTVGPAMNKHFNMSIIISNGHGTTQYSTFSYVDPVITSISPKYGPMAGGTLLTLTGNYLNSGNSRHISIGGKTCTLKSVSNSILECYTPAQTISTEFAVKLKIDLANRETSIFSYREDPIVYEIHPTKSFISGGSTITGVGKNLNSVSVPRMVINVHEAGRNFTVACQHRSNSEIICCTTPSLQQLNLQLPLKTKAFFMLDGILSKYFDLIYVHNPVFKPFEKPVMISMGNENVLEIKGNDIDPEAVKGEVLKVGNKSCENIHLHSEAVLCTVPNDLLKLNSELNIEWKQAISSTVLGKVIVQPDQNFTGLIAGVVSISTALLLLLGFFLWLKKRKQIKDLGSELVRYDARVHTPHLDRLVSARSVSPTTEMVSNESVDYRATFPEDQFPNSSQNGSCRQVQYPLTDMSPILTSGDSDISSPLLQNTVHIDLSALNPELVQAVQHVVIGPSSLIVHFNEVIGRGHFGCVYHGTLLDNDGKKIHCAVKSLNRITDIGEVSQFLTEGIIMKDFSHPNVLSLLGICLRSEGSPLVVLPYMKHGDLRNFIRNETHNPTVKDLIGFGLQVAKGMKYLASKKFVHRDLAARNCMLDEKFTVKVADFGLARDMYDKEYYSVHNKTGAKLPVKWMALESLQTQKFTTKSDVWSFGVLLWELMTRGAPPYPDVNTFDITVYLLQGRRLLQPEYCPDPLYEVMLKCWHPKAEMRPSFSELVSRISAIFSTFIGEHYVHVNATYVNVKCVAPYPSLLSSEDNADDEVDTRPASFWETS

Row | SMILES | IC50 [1] [nM] | also measured
1 | c1n[nH]c(-c2nc3c(s2)CCOc2cc(-c4cn[nH]c4)ccc2-3)n1 | 0.269 | –
2 | C1=CN(c2ccccc2)CC(CNc2ccc(Oc3ccncc3)cc2)=C1 | – | IC50 [2]: 8.91 nM
3 | c1n[nH]c(-c2nc3c(s2)CCOc2cc(C4CNC4)ccc2-3)n1 | 1.91 | –
4 | C1=C(c2cc(C3CNCNC3)ccc2NCc2ncc[nH]2)CCCC1 | – | IC50 [3]: 2.51 nM
